Source: patent US9926298B2, “Heterocyclic compounds and use thereof” (National Health Research Institutes, priority 2014, dated 2018)

How the values were obtained:
Limb Ischemia in Mice = assay: Limb ischemia in mice; format: in vivo, ICR mice; conditions: 6 mg/kg/d subcutaneous, twice a week, laser Doppler perfusion, seven weeks
Protocol: Unilateral hindlimb ischemia was induced in ICR mice by ligating and excising the right femoral artery. Briefly, animals were anesthetized by an intraperitoneal injection of Xylocaine (2 mg/kg of body weight) plus Zoletil (i.e., the dissociative anesthetic Tiletamine/Zolazepam at a ratio of 1:1; 5 mg/kg of body weight). The proximal and distal portions of the femoral artery were ligated with a silk thread, and a 0.2 centimeter section of the blood vessel was removed. Hindlimb blood perfusion was measured with a laser Doppler perfusion imager system (Moor Instruments Limited, Devon, UK) before and after the surgery and was then followed on a weekly basis. Animals were subcutaneously treated with compound 4 (6 mg/kg/d, twice a week) in saline after surgery. The animals were sacrificed by cervical dislocation without sedation at the end of the seven experimental weeks. To avoid the influence of ambient light and temperature, the results are expressed as the ratio of perfusion in the right (ischemic) versus left (non-ischemic) limb.

Ischemic Stroke in Rats = assay: Ischemic stroke in rats (MCAo); format: in vivo, male Sprague-Dawley rats; conditions: 1 mg/kg/d i.p. for 5 days; for horizontal movement number compared with vehicle-treated animals / vertical movement number: day 2 after MCAo; for volume of infarction as compared to vehicle (TTC staining): day 5 after MCAo
Protocol: Adult male Sprague-Dawley rats (250-300 g) were anesthetized with chloral hydrate (400 mg/kg i.p.). The right middle cerebral artery was occluded (MCAo) and bilateral common carotids (CCAs) were clamped for 60 minutes to generate focal ischemia in the right cerebral cortex. Core body temperature was maintained at 37° C.
Compounds 62 and 63 and a vehicle were administered to the rats at a dose of 1 mg/kg/d (i.p.) for 5 consecutive days. The first dose was given at 90 minutes after MCAo. Each animal was placed in a 42×42×31 cm activity monitor for 1 h on day 2 after MCAo. The monitor contained 16 horizontal and 8 vertical infrared sensors spaced 2.5 cm apart. Locomotor activity was calculated using the number of infrared beams broken by the animals.
TTC staining was performed on day 5 after MCAo to determine infarction size as described previously in Brain Research, volume 1116, issue 1, 2006, pages 159-165. Briefly, rats were decapitated and the brains were removed and sliced into 2.0-mm-thick sections. The brain slices were incubated in a 2% TTC solution (Sigma-Aldrich) for 15 minutes at room temperature and then transferred into a 4% paraformaldehyde solution for fixation. The area of infarction in each slice was measured with a digital scanner and Imagetools programs (University of Texas Health Sciences Center). The volume of infarction in each animal was obtained from the product of average slice thickness (2 mm) and sum of infarction areas in all brain slices examined.

| Structure (SMILES) | improvement of blood flow in the ischemic hindlimb as compared with the vehicle control (Limb Ischemia in Mice) | horizontal movement number compared with vehicle-treated animals (Ischemic Stroke in Rats) | vertical movement number (Ischemic Stroke in Rats) | volume of infarction as compared to vehicle (TTC staining) (Ischemic Stroke in Rats) |
| --- | --- | --- | --- | --- |
| c1ccc2c(NC3CCNCC3)nc(NCc3cn(CCCNCCCNC4CCCCC4)nn3)nc2c1 [Compound 4] | 20-25% |  |  |  |
| N[C@@H](CCC(=O)N1CCC(Nc2nc(NCc3cn(CCCNCCCNC4CCCCC4)nn3)nc3ccccc23)CC1)C(=O)OCc1ccccc1 [Compound 62] |  | significant increase | significantly increased | significantly reduced |
| N[C@@H](CCC(=O)N1CCC(Nc2nc(NCc3cn(CCCNCCCNC4CCCCC4)nn3)nc3ccccc23)CC1)C(=O)O [Compound 63] |  | significant increase | significantly increased | significantly reduced |
